Measurements taken from patent US7119072B2, “Macrocyclic peptides active against the hepatitis C virus” (Boehringer Ingelheim (Canada) Ltd., priority 2002, dated 2006).

Test: In vivo oral absorption screen / pharmacokinetic assay in the rat
Details: male, Sprague Dawley, rat plasma, dose of 5 mg/kg in Methocel:Tween20 (0.5%:0.3%), read-out: area under the curve (AUC)
Source text: More explicitly, the following assay, an in vivo oral absorption screen, was used to determine plasma levels of test compounds in a rat after oral administration: The selection of compounds to be pooled into a “cassette” was based on their structural similarity and physicochemical properties. A solid phase extraction method applicable to all the selected compounds was established. Based on the initial testing where each compound was spiked into rat plasma and run through HPLC or HPLC/MS at a concentration of 0.5 μM, the retention time, ionic mass, and the possible separation among compounds by HPLC and/or HPLC/MS were used as basis for pooling 3–4 compounds into one “cassette”. Each “cassette” contains 3–4 compounds at 5 or 4 mg/kg for each compound. The cassettes were prepared as an oral suspension in 0.5% aqueous methylcellulose and 0.3% of polyoxyethylene (20) sorbiton monooleate (Tween-80). The dosing volume was 10 ml/kg via oral gavage. Male Sprague Dawley rats were fasted overnight in individual cages, with access to aqueous 10% dextrose. Two rats were dosed with each “cassette”. Plasma samples (˜1 ml) were collected at 1 and 2 h post-dosing from the 2 rats and pooled for extraction and analysis. […] Samples were analyzed by HPLC and HPLC/MS for comparison purpose. […]

AUC | SMILES
16 µM·h | COc1ccc2c(O[C@@H]3C[C@H]4C(=O)N[C@]5(C(=O)O)C[C@H]5/C=C\CCCCC[C@H](NC(=O)OC5CCCC5)C(=O)N4C3)cc(-c3csc(NC4CCCC4)n3)nc2c1 [Compound 101]
18 µM·h | COc1ccc2c(O[C@@H]3C[C@H]4C(=O)N[C@]5(C(=O)O)C[C@H]5/C=C\CCCCC[C@H](NC(=O)OC5CCCC5)C(=O)N4C3)cc(-c3csc(NC4CCCCC4)n3)nc2c1 [Compound 102]
